Key:
[1] = biological target: human Nav1.8 sodium channel (Homo sapiens, UniProt Q9Y5Y9); experiment: Blocking activity on sodium channel 1.8 (Nav1.8), whole-cell manual patch clamp; format: cell-based; settings: for inhibition at 0.001 µM: read-out: inhibition Percent @1 nM, 1 nM compound; for inhibition at 0.01 µM: read-out: inhibition Percent @10 nM, 10 nM compound
[2] = In vivo pharmacokinetics in rats, single intravenous injection or oral gavage; settings: male, SD, plasma, Rat; for Vd: read-out: Vss
Description: The in vivo pharmacokinetics in rats were evaluated via a single intravenous injection or oral gavage administration in this test example. • 1. Test Methods and Conditions: Male SD rats were fasted overnight and administered a single intravenous dose of 2 mg/kg or 1 mg/kg of the test compound (solvent for Intravenous administration was 5% DMSO/10% Solutol® HS 15/10% EtOH/75% saline, with a dosing volume of 5 mL/kg) and an oral gavage dose of 10 mg/kg or 5 mg/kg of the test compound (solvent for administration was 0.5% CMC-Na, with a dosing volume of 10 mL/kg), respectively. • 2. Sampling Information: Blood samples (0.2 mL) were collected from the retroorbital venous plexus at the designated time points: 0.25, 0.5, 1.0, 2.0, 3.0, 4.0, 6.0, 8.0, and 24 hours before and after dosing (a 5 min sampling point was added for the intravenous administration group), respectively. The samples were placed in EDTA-K2 tubes and centrifuged at 11,000 rpm for 5 minutes. Plasma was separated and frozen at -20°C. • 3. Assay Information: LC/MS/MS was used to determine the concentration of the parent drug in rat/mouse plasma following intravenous and oral gavage administration of the test compound. Pharmacokinetic parameters in rat/mouse plasma were calculated for both administration routes, and the bioavailability of each compound in rats was also calculated. Table 5: Intravenous Pharmacokinetic Information of Representative Compounds

[3] = intravenous, single dose 2 mg/kg or 1 mg/kg (figure not given)

Chain of human Nav1.8 sodium channel (Q9Y5Y9 whole entry): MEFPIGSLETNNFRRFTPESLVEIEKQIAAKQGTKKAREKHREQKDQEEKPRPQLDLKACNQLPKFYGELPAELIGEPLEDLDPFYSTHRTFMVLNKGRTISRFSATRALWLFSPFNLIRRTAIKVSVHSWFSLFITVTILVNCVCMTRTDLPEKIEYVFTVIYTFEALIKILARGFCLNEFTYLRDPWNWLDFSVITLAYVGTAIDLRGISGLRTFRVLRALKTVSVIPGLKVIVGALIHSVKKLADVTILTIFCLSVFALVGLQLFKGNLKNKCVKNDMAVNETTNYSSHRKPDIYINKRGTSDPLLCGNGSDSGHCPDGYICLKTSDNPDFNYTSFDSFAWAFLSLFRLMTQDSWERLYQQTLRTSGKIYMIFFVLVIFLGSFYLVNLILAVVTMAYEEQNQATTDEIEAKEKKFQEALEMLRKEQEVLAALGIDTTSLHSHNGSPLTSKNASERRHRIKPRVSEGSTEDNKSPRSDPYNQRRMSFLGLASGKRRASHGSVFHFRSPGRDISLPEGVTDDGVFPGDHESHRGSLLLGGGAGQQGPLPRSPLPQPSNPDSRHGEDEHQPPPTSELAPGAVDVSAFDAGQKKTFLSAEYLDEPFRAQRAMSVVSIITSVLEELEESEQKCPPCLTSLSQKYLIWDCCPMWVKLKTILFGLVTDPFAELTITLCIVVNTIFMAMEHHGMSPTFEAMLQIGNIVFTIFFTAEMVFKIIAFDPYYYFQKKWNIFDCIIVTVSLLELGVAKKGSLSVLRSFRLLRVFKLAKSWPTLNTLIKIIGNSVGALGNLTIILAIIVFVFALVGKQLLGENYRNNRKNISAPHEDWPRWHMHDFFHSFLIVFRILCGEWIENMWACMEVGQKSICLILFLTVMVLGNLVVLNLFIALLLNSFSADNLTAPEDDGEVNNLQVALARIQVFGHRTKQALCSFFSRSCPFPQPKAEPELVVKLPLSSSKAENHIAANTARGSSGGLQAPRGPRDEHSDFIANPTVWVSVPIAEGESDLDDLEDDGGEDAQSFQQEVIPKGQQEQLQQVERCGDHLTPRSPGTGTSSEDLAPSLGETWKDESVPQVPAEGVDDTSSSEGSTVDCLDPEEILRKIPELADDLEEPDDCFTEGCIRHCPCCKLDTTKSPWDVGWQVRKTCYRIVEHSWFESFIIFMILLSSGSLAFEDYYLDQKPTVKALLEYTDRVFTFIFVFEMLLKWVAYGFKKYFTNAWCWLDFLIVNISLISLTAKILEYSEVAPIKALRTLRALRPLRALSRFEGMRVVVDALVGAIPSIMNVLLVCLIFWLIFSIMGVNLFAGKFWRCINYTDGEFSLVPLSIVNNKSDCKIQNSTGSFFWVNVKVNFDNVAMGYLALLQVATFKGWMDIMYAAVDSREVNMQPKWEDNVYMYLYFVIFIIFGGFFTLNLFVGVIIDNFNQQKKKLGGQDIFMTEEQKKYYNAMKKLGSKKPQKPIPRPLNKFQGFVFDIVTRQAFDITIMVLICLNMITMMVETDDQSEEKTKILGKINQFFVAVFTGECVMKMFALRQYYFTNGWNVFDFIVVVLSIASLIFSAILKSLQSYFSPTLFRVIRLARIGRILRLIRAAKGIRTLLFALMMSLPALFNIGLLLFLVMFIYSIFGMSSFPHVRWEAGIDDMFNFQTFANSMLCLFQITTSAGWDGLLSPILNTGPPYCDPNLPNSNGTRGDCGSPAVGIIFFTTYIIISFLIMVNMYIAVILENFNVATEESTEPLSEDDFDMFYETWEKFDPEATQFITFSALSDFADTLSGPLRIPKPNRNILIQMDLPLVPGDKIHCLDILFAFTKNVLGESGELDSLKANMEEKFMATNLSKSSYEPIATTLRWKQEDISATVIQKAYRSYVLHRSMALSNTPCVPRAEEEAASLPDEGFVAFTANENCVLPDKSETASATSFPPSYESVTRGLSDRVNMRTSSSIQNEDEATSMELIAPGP

Cc1nc(N2CCCC(F)(F)CC2)c(C(=O)Nc2ccc(F)c(C(N)=NO)c2)cc1Cl [Compound I-1, 5-chloro-2-(4,4-difluoroazepan-1-yl)-N-(4-fluoro-3-(N'-hydroxyamidino)phenyl)-6-met hylnicotinamide]
inhibition at 0.001 µM [1]: 71%
AUC(0-t) [2, 3]: 1290 ng·h/mL
clearance [2, 3]: 29.6 mL/min/kg
half-life [2, 3]: 0.723 h
Vd [2, 3]: 0.638 L/kg
AUC(0-t) ([2]; oral gavage, 10mg/kg): 546 ng·h/mL
Cmax ([2]; oral gavage, 10mg/kg): 433 ng/mL
Tmax ([2]; oral gavage, 10mg/kg): 0.5 h
half-life ([2]; oral gavage, 10mg/kg): 1.49 h
bioavailability ([2]; oral gavage, 10mg/kg): 8.7%

CC(C)c1nc(N2CCCC(F)(F)CC2)c(C(=O)Nc2ccc(F)c(C(N)=NO)c2)cc1Cl [Compound I-24, 5-chloro-2-(4,4-difluoroazepan-1-yl)-N-(4-fluoro-3-(N'-hydroxyamidino)phenyl)-6-isop ropylnicotinamide]
inhibition at 0.001 µM [1]: 56%
AUC(0-t) [2, 3]: 1260 ng·h/mL
clearance [2, 3]: 12.8 mL/min/kg
half-life [2, 3]: 2 h
Vd [2, 3]: 1.38 L/kg
AUC(0-t) ([2]; oral gavage, 5mg/kg): 1950 ng·h/mL
Cmax ([2]; oral gavage, 5mg/kg): 244 ng/mL
Tmax ([2]; oral gavage, 5mg/kg): 2 h
half-life ([2]; oral gavage, 5mg/kg): 2.73 h
bioavailability ([2]; oral gavage, 5mg/kg): 30.9%

NC(=NO)c1cc(NC(=O)c2cc(Cl)c(C(F)(F)F)cc2N2CCCC(F)(F)CC2)ccc1F [Compound I-33, 5-chloro-2-(4,4-difluoroazepan-1-yl)-N-(4-fluoro-3-(N'-hydroxyamidino)phenyl)-4-(trifluoromethyl)benzamide]
inhibition at 0.001 µM [1]: 86%
AUC(0-t) [2, 3]: 2270 ng·h/mL
clearance [2, 3]: 7.44 mL/min/kg
half-life [2, 3]: 2.67 h
Vd [2, 3]: 1.16 L/kg
AUC(0-t) ([2]; oral gavage, 5mg/kg): 8640 ng·h/mL
Cmax ([2]; oral gavage, 5mg/kg): 623 ng/mL
Tmax ([2]; oral gavage, 5mg/kg): 6 h
half-life ([2]; oral gavage, 5mg/kg): 5.12 h
bioavailability ([2]; oral gavage, 5mg/kg): 38.9%

NC(=NO)c1cc(NC(=O)c2cc(Cl)c(C(F)(F)F)nc2N2CCCC(F)(F)CC2)ccc1F [Compound I-36, 5-chloro-2-(4,4-difluoroazepan-1-yl)-N-(4-fluoro-3-(N'-hydroxyamidino)phenyl)-6-(trifluoromethyl)nicotinamide]
inhibition at 0.001 µM [1]: 50%
AUC(0-t) [2, 3]: 4440 ng·h/mL
clearance [2, 3]: 3.91 mL/min/kg
half-life [2, 3]: 3.28 h
Vd [2, 3]: 0.823 L/kg
AUC(0-t) ([2]; oral gavage, 5mg/kg): 4410 ng·h/mL
Cmax ([2]; oral gavage, 5mg/kg): 386 ng/mL
Tmax ([2]; oral gavage, 5mg/kg): 4.3 h
half-life ([2]; oral gavage, 5mg/kg): 3.15 h
bioavailability ([2]; oral gavage, 5mg/kg): 38.9%

N=C(N)c1cc(NC(=O)c2cc(Cl)c(C(F)F)nc2C2CCCC(F)(F)CC2)ccc1F (centres unmarked) [Compound I-39, N-(3-amidino-4-fluorophenyl)-5-chloro-2-(4,4-difluorocycloheptan-1-yl)-6-difluorome thylnicotinamide]
inhibition at 0.001 µM [1]: 51%

[2H]Cc1nc(N2CCCC(F)(F)CC2)c(C(=O)Nc2ccc(F)c(C(N)=NO)c2)cc1Cl [Compound I-42, 5-chloro-2-(4,4-difluoroazepan-1-yl)-N-(4-fluoro-3-(N'-hydroxyamidino)phenyl)-6-deu teromethylnicotinamide]
inhibition at 0.001 µM [1]: 65%

CN(C)c1nc(N2CCCC(F)(F)CC2)c(C(=O)Nc2ccc(F)c(C(N)=NO)c2)cc1Cl [Compound I-43, 5-chloro-2-(4,4-difluoroazepan-1-yl)-6-(dimethylamino)-N-(4-fluoro-3-(N'-hydroxyamidino)phenyl)nicotinamide]
inhibition at 0.001 µM [1]: 55%

NC(=NO)c1cc(NC(=O)c2cc(Cl)c(CF)nc2N2CCCC(F)(F)CC2)ccc1F [Compound I-44, 5-chloro-2-(4,4-difluoroazepan-1-yl)-N-(4-fluoro-3-(N'-hydroxyamidino)phenyl)-6-(fluoromethyl)nicotinamide]
inhibition at 0.001 µM [1]: 32%

CCc1nc(N2CCCC(F)(F)CC2)c(C(=O)Nc2ccc(F)c(C(N)=NO)c2)cc1Cl [Compound I-45, 5-chloro-2-(4,4-difluoroazepan-1-yl)-6-ethyl-N-(4-fluoro-3-(N'-hydroxyamidino)pheny I)nicotinamide]
inhibition at 0.001 µM [1]: 94%

NC(=NO)c1cc(NC(=O)c2cc(Cl)c(N3CCCC3)nc2N2CCCC(F)(F)CC2)ccc1F [Compound I-46, 5-chloro-2-(4,4-difluoroazepan-1-yl)-N-(4-fluoro-3-(N'-hydroxyamidino)phenyl)-6-(pyrrolidinyl)nicotinamide]
inhibition at 0.01 µM [1]: 50%

NC(=NO)c1cc(NC(=O)c2cc(Cl)c(Cl)cc2N2CCCC(F)(F)CC2)ccc1F [Compound I-47, 4,5-dichloro-2-(4,4-difluoroazepan-1-yl)-N-(4-fluoro-3-(N'-hydroxyamidino)phenyl)be nzamide]
inhibition at 0.01 µM [1]: 80%

NC(=NO)c1cccc(NC(=O)c2cc(Cl)c(C(F)(F)F)cc2N2CCCC(F)(F)CC2)c1 [Compound I-48, 5-chloro-2-(4,4-difluoroazepan-1-yl)-N-(3-(N'-hydroxyamidino)phenyl)-4-trifluoromet hylbenzamide]
inhibition at 0.01 µM [1]: 77%

NC(=NO)c1cccc(NC(=O)c2c(N3CCCC(F)(F)CC3)ccc(Cl)c2C(F)(F)F)c1 [Compound I-49, 5-chloro-2-(4,4-difluoroazepan-1-yl)-N-(3-(N'-hydroxyamidino)phenyl)-6-(trifluoromethyl)benzamide]
inhibition at 0.01 µM [1]: 77%

COc1c([C@H]2[C@H](C(=O)Nc3ccnc(C(N)=O)c3)O[C@@](C)(C(F)(F)F)[C@H]2C)ccc(F)c1F [VX-548, reference compound]
IC50 [1]: 0.34 ± 0.04 nM
AUC(0-t) [2, 3]: 804 ng·h/mL
clearance [2, 3]: 20.7 mL/min/kg
half-life [2, 3]: 0.67 h
Vd [2, 3]: 0.92 L/kg
AUC(0-t) ([2]; oral gavage, 5mg/kg): 518 ng·h/mL
Cmax ([2]; oral gavage, 5mg/kg): 157 ng/mL
Tmax ([2]; oral gavage, 5mg/kg): 0.5 h
half-life ([2]; oral gavage, 5mg/kg): 2.68 h
bioavailability ([2]; oral gavage, 5mg/kg): 14%
